Measurements reported in patent publication US20210078958A1, “QUINAZOLINE DERIVATIVE AND USE THEREOF” (MEDSHINE DISCOVERY INC., priority 2017, published 2021).

Key:
BT-474 cell = experiment: inhibitory activity on cell proliferation (Cell-Titer-Glo), BT-474; format: cell-based; details: Homo sapiens, BT-474, 72 h; incubation for 3 days, Cell-Titer-Glo
Source text: Purpose of the assay: to detect the inhibitory activity of the test compounds on cell proliferation.
Principle of the assay: the luciferase in a Cell-Titer-Glo reagent produces oxidized luciferin with luciferin, oxygen and ATP as reaction substrates, and releases energy in the form of light. Since the luciferase reaction requires ATP, the total amount of light generated by the reaction is proportional to the total amount of ATP that reflects cell viability.
Cell Titer-Glo cell viability assay kit with luminescence (Promega #G7573)
According to the schematic diagram of the cell seed plate, cells were seeded in a 384- or 96-well plate at a density of 1000 cells per well and 25 μL per well, and 25 μL of PBS was added to the wells near edge of the place where no cells were seeded.
(1) The stock solution of the compounds has a concentration of 10 mM, and the compounds were diluted with DMSO to an initial concentration of 4 mM. The compounds were added to the plate with stock solution of compounds, 9 μL per well.
(2) The compounds were diluted with an ECHO liquid workstation, where 125 nL of compounds were added to each well of the cell plate, 125 nL of DMSO was added to each of the cell well in columns 2 and 23, and 125 nL of DMSO was added to each PBS well in columns 1 and 24.
2.3 After addition of the compounds, the cell plate was centrifuged at 1000 rpm for 1 min, and then placed in a 37° C., 5% CO2 incubator for incubation for 3 days.
The cell plate was taken out from the incubator and equilibrated at room temperature for 30 minutes. 25 μL of Cell-Titer-Glo reagent was added to each well, shaken for one minute to allow well mixed, and centrifuged at 1000 rpm for 1 minute. After 10 minutes, the plate was read on PerkinElmer Envision, and the […] reading time was set to 0.2 second.

[1] = test system: subcutaneous xenograft tumor of human gastric cancer NCI-N87 cells; experiment: Assay Example 5: in vivo pharmacodynamics, NCI-N87 xenograft; set-up: species or system BALB/c nude mouse; details: 0.5 mg/kg
Method: Purpose of the assay: to evaluate the in vivo efficacy of test compounds disclosed herein on subcutaneous xenograft tumor of human gastric cancer NCI-N87 cells in a BALB/c nude mouse model.
Animals of the assay: female BALB/c nude mice, 6-8 weeks old, weighing 18-22 grams; supplier: shanghai sippr bk laboratory animals Ltd.
Human gastric cancer NCI-N87 cells were cultured in monolayer in vitro. The culture conditions were RPMI-1640 medium plus 10% fetal bovine serum, 100 U/mL penicillin, 100 μg/mL streptomycin, 37° C., 5% CO2. The passaging was performed by conventional digestion with trypsin-EDTA twice a week. When the cell saturation was 80%-90%, the cells were collected, counted and inoculated.
0.2 mL (10×10^6) of NCI-N87 cells (PBS+Matrigel, 1:1) were inoculated subcutaneously on the right back of each mouse. When the average tumor volume reached 156 mm^3, administration to each group was started.
The test compounds were formulated into a 0.05 mg/mL clear solution in the solvents of 10% NMP (N-methylpyrrolidone)+10% ethylene glycol stearate+80% water.
The assay index is to investigate whether tumor growth is inhibited, delayed or cured. Tumor diameter was measured twice a week with a vernier caliper. The calculation formula of tumor volume is: V=0.5a×b^2, wherein a and b represent the long and short diameters of tumor, respectively.
The antitumor efficacy of the compounds were evaluated by TGI (%) or tumor proliferation rate T/C (%). TGI (%) reflects the tumor growth inhibition rate. TGI (%) is calculated as follows: TGI (%)=[1−(average tumor volume at the end of administration for a certain treatment group−average tumor volume at the beginning of administration for this treatment group)/(average tumor volume at the end of treatment for a solvent control group−average tumor volume at the beginning of administration for this solvent control group)]×100%.
Tumor proliferation rate T/C (%): the calculation formula is as follows: T/C (%)=average tumor volume at the end of administration for a certain treatment group/average tumor volume at the end of treatment for the solvent control group×100%.
Statistical analysis included the mean and standard error (SEM) of tumor volume at each time point in each group (See Table 5-1 for specific data). […] The comparison between two groups was analyzed by T-test, and the comparison among three or more groups was analyzed by one-way ANOVA. […] All data analysis was carried out with SPSS 17.0. p<0.05 was considered a significant difference.

| Structure (SMILES) | IC50 (BT-474 cell) | Tumor volume (mm^3) (Day 21) ([1]; NCI-N87 xenograft, Mean + SEM) | T/C (%) ([1]; day 21) | TGI (%) ([1]; day 21) |
| --- | --- | --- | --- | --- |
| C=CC(=O)N1[C@@H]2CC[C@H]1C[C@H](Oc1cc3c(Nc4ccc(Cl)c(Cl)c4F)ncnc3cc1OC)C2 [Example 8] | 0.39 nM | – | – | – |
| C=CC(=O)N1[C@@H]2CC[C@H]1C[C@H](Nc1cc3c(Nc4ccc(Cl)c(Cl)c4F)ncnc3cc1OC)C2 [Example 38] | – | 63 ± 10 mm^3 | 10.69% | 119.41% |
